The target in this experiment is Xanthine dehydrogenase/oxidase (Bos taurus, UniProt P80457). The experiment is described as follows: Xanthine Oxidase (XO) Assay. Particulars: pH 7.4.

This passage reports IC50 results from BindingDB's records for doi:10.1111/cbdd.12686 (Jamia Hamdard, 2016).

Structures are written as SMILES.

Chain of Xanthine dehydrogenase/oxidase (P80457 whole entry): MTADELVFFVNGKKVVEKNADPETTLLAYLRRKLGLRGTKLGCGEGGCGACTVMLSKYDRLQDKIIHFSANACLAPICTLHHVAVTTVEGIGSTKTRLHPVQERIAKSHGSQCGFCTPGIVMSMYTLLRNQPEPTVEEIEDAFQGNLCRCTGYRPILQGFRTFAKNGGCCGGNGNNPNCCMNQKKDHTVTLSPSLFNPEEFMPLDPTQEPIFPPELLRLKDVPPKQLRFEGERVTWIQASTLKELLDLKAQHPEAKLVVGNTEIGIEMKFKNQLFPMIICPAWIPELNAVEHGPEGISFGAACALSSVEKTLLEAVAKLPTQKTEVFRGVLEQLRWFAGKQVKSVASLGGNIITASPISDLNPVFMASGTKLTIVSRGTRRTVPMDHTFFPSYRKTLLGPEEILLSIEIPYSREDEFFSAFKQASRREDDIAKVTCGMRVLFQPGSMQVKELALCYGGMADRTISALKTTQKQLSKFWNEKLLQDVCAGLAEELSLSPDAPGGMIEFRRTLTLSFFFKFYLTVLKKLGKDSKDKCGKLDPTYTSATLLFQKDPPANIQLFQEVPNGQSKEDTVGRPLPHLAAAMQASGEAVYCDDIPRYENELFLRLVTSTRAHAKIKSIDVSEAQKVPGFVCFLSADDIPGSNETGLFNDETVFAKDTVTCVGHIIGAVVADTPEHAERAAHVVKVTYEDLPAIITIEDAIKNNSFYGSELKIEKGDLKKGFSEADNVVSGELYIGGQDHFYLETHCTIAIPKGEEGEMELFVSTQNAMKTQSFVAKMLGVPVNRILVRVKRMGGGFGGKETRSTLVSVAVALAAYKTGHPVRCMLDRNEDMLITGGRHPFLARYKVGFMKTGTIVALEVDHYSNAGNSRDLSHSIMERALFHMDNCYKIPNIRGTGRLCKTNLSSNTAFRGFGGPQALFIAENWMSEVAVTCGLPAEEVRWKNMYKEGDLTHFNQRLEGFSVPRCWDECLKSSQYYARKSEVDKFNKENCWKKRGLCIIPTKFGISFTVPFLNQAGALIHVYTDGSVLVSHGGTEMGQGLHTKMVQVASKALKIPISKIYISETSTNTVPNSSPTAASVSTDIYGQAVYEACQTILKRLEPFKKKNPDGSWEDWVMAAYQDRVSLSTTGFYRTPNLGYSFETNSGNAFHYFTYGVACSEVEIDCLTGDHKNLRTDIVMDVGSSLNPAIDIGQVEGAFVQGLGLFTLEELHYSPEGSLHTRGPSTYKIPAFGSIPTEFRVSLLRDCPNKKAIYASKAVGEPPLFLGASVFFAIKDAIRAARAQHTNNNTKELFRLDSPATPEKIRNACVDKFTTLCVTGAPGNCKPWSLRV

`Cc1nc(NCc2ccccc2)sc1C(=O)O` [2-(Benzylamino)-4-methyl-1,3-thiazole-5-carboxylic acid (5a)] came in with an IC50 of 98.1 µM.

`Cc1nc(NCc2ccc(Cl)cc2Cl)sc1C(=O)O` [2-{[(2,4-dichlorophenyl)methyl]amino}-4-methyl-1,3-thiazole-5-carboxylic acid (5l)] showed a half-maximal inhibitory concentration (IC50) of 8.1 µM. With `Cc1nc(NCc2ccccc2Br)sc1C(=O)O` [2-{[(2-bromophenyl)methyl]amino}-4-methyl-1,3-thiazole-5-carboxylic acid (5i)], the IC50 was greater than 100 µM. Regarding `Cc1nc(NCc2ccccc2Cl)sc1C(=O)O` [2-{[(2-chlorophenyl)methyl]amino}-4-methyl-1,3-thiazole-5-carboxylic acid (5j)], the IC50 amounted to 9.9 µM.

Molecule `Cc1nc(NCc2ccccc2O)sc1C(=O)O` [2-{[(2-hydroxyphenyl)methyl]amino}-4-methyl-1,3-thiazole-5-carboxylic acid (5m)] showed an IC50 greater than 100 µM.

For the molecule `COc1ccccc1CNc1nc(C)c(C(=O)O)s1` [2-{[(2-methoxyphenyl)methyl]amino}-4-methyl-1,3-thiazole-5-carboxylic acid (5n)], inhibition was half-maximal at 14.7 µM (IC50).

Molecule `Cc1nc(NCc2ccc(O)c(O)c2)sc1C(=O)O` [2-{[(3,4-dihydroxyphenyl)methyl]amino}-4-methyl-1,3-thiazole-5-carboxylic acid (5p)] registered an IC50 of 60.2 µM. On to `Cc1nc(NCc2ccc(Br)cc2)sc1C(=O)O` [2-{[(4-bromophenyl)methyl]amino}-4-methyl-1,3-thiazole-5-carboxylic acid (5d)], for which the midpoint of inhibition, the IC50, lay at 43.2 µM. Take `Cc1nc(NCc2ccc(Cl)cc2)sc1C(=O)O` [2-{[(4-chlorophenyl)methyl]amino}-4-methyl-1,3-thiazole-5-carboxylic acid (5b)]: the IC50 is greater than 100 µM. For the molecule `Cc1nc(NCc2ccc(F)cc2)sc1C(=O)O` [2-{[(4-fluorophenyl)methyl]amino}-4-methyl-1,3-thiazole-5-carboxylic acid (5c)], the IC50 came to 30.3 µM.

On to `Cc1nc(NCc2ccc(O)cc2)sc1C(=O)O` [2-{[(4-hydroxyphenyl)methyl]amino}-4-methyl-1,3-thiazole-5-carboxylic acid (5f)], for which inhibition was half-maximal at 21.5 µM (IC50). Consider `COc1ccc(CNc2nc(C)c(C(=O)O)s2)cc1` [2-{[(4-methoxyphenyl)methyl]amino}-4-methyl-1,3-thiazole-5-carboxylic acid (5g)], for which the IC50 is greater than 100 µM. Molecule `Cc1ccccc1CNc1nc(C)c(C(=O)O)s1` [4-methyl-2-{[(2-methylphenyl)methyl]amino}-1,3-thiazole-5-carboxylic acid (5k)] came in with an IC50 of 3.6 µM. Next, `Cc1ccc(CNc2nc(C)c(C(=O)O)s2)cc1` [4-methyl-2-{[(4-methylphenyl)methyl]amino}-1,3-thiazole-5-carboxylic acid (5e)]: greater than 100 µM.

A word on the IC50: it is the concentration at which inhibition is half-maximal. Read a low IC50 as greater potency.
